In article PMC9969396, “Development of Human Carbonic Anhydrase II Heterobifunctional Degraders” (Journal of Medicinal Chemistry, 2023):
Where two headings read alike, the source gives them in different places.

Tests used:
hCAII [1] = molecular target: T1, hCAII (Homo sapiens, UniProt P00918); test: colorimetric p-nitrophenyl acetate hCAII activity assay; format: biochemical
T1 construct: made in house; host or cells: Escherichia coli BL21(DE3), pACA plasmid (gift from Carol A. Fierke)
Experimental: To verify that the p-sulfamoyl benzamide MBP retained its binding following ligation with the linker and bulky recruiting group moieties, the inhibition activity of each degrader candidate was determined using a colorimetric p-nitrophenol acetate hCAII activity assay.[46] In short, recombinantly expressed hCAII was preincubated with the degrader candidate before the addition of p-nitrophenyl acetate, a substrate that upon enzymatic cleavage leads to acetic acid and p-nitrophenolate.
Recombinant hCAII was expressed and purified according to the protocol reported in the Supporting Information. […] Wells were prepared to a final volume of 100 μL per well, including buffer (50 mM HEPES, pH 8.0), enzyme (hCAII, 40 nM), inhibitor (varying concentrations), and substrate (p-nitrophenyl acetate, 500 μM). Inhibitors and protein were preincubated for 10 min at rt, and the substrate was added to the reaction mixture immediately before reading. […] The rate of absorbance for each replicate was corrected for substrate autohydrolysis and inherent inhibitor absorbance by subtracting the rate of absorbance from a blank sample lacking enzyme but containing the inhibitor and substrate. Samples lacking inhibitor but containing enzyme and substrate were used to define 100% hCAII activity. Samples lacking inhibitor and enzyme were used to define 0% hCAII activity. IC50 was determined using non-linear regression with a variable slope on the GraphPad Prism software.

hCAII [2] = molecular target: T2, hCAII (Homo sapiens, UniProt P00918+Q96SW2); test: single-point hCAII degradation screen in HEK293 cells, western blot; format: cell-based; conditions: 5 μM, 24 h; for activity in single-point screen (hCAII degradation): vs DMSO vehicle
T2 construct: HEK293 cells, a line known to abundantly express hCAII; endogenous in cells; host or cells: HEK293
Experimental: Following the confirmation of candidate hCAII’s in vitro activity, candidate degraders 1–10 were evaluated for their degradation of hCAII using HEK293 cells, a line known to abundantly express hCAII.[48] To obtain a preliminary evaluation of the activity of these compounds, an initial single-point screen was performed with HEK293 cells dosed with individual degrader candidates at a final concentration of 5 μM for 24 h prior to cell lysis. The relative abundance of hCAII in whole cell lysates was then evaluated via western blot analysis (see the Experimental Section for details).
Figure 2 Single-point activity screen of degrader candidates 1–10. Western blot analysis of HEK293 cells treated with degrader candidate (5 μM final concentration) or vehicle (DMSO) for 24 h. […] Degraders 4 and 5 were identified as active from this screen. Full images of the western blots are provided within the Supporting Information (Figure S1).
HEK293 cells were cultured in Dulbecco’s modified Eagle’s medium (DMEM, Gibco, 4.5 g/L glucose) supplemented with 10% fetal bovine serum (FBS), 1% sodium pyruvate, and 1% penicillin/streptomycin. Cells were grown at 37 °C in a humidified 5% CO2 atmosphere and regularly tested for mycoplasma.
After reaching 90% confluency, HEK293 cells were trypsinized, counted, and plated with 2 mL media at 2 × 10^6 cells per well on a tissue-culture-treated, 6-well plate. At the appropriate number of hours before reaching ∼90% confluency, cells were treated with DMSO solutions of the appropriate compounds (final concentration 0.5% DMSO per well). Upon reaching 90% confluency, typically 72 h, culture media were removed and the cells were washed with cold Dulbecco’s phosphate-buffered saline (DPBS). Lysis buffer, composed of cell lysis buffer (Cell Signaling Technology, 9803), protease inhibitor cocktail (Cell Signaling Technology, 5872), and 1 mM phenylmethylsulfonylfluoride, was added to each well, and the plates were rocked at 4 °C for 20 min. Cells were then scraped from the bottom of the plates, and the supernatant was collected after spinning down at 14,000g at 4 °C for 10 min and frozen at −80 °C. Lysates were thawed on ice, and the total protein concentration was measured using a Pierce bicinchoninic acid protein assay (Thermo Fisher Scientific, 23225). […] The immunoblot was then analyzed using the ImageJ software as an 8-bit image. The brightness and contrast of the image were adjusted, and the integrated density was calculated for each protein band using the gel lane analysis tool. Relative hCAII expression was calculated by normalizing the hCAII/β-actin ratio in compound-treated wells to the hCAII/β-actin ratio in vehicle (DMSO)-treated wells and indicated as “hCAII Abundance (% DMSO)”.

[3] = enzyme concentration of 40 nM, read-out: IC50, below the detection limit of the assay
[4] = recombinant hCAII 40 nM, p-nitrophenyl acetate 500 μM, pH 8.0, 95% confidence interval, read-out: IC50 (nM), hCAII inhibition activity (Table S1)

Row | Compound | IC50 (hCAII [1]; [3]) [nM] | IC50 (hCAII [1]; [4]) [nM] | protein degradation quantified by western blot (hCAII [2]) [%] | activity in single-point screen (hCAII degradation) (hCAII [2])
1 | NS(=O)(=O)c1ccc(C(=O)NCCCOCCCCOCCCNc2cccc3c2C(=O)N(C2CCC(=O)NC2=O)C3=O)cc1 (centres unmarked) [Compound 4, N-(3-(4-(3-((2-(2,6-Dioxopiperidin-3-yl)-1,3-dioxoisoindolin-4-yl)amino)propoxy)butoxy)propyl)-4-sulfamoylbenzamide] | ≤ 20 | ≤ 20 | 64 | active
2 | NS(=O)(=O)c1ccc(C(=O)NCCCOCCOCCOCCCNc2cccc3c2C(=O)N(C2CCC(=O)NC2=O)C3=O)cc1 (centres unmarked) [Compound 5, N-(3-(2-(2-(3-((2-(2,6-Dioxopiperidin-3-yl)-1,3-dioxoisoindolin-4-yl)amino)propoxy)ethoxy)ethoxy)propyl)-4-sulfamoylbenzamide] | ≤ 20 | ≤ 20 | 85 | active
